Data on 1 compound can be found in patent publication US7323044B1, “Biocidal compositions” (Troy Corporation, priority 2007, dated 2008).

Data set [1] in a line: Amount of castor oil based co-solvent required to keep OBPA in solution with plasticizer. The settings on record: with commercial plasticizers (e.g., diisodecyl phthalate); about −13° C. to about 30° C. Type of data set: physicochemical. As for the experimental part: As a general rule, OBPA solutions which are transported or stored at outdoor conditions, without the benefit of dedicated heating or cooling equipment, may be exposed to temperatures in the range of about −13° C. to about 30° C. […] For OBPA solutions which will be transported or stored at outdoor conditions, we prefer that the weight ratio of OBPA to the solvent is about 0.12 or less in the present invention, more preferably in the range of about 0.083 to about 0.12, and most preferably about 0.10. For OBPA solutions which will be temperature-controlled during shipment and storage, the invention can be successfully practiced over a broader range of OBPA to solvent weight ratio.

For data set [2] the following is noted: background statement; cited from earlier work.

Consider `c1ccc2c(c1)Oc1ccccc1[As]2O[As]1c2ccccc2Oc2ccccc21` [OBPA, 10,10′-oxybisphenoxarsine], for which the “Castor oil based co-solvent required to keep 1 gram of OBPA in solution” value in data set [1] was “at least 8 grams”. The “Solubility of OBPA in plasticizers currently favored for manufacturing flexible PVC” value in data set [2] was “less than 1 wt %”.
